Measured values published in the supplement of paper PMC13207355.

Tests used:
Conditions in all cases: exposure time: 72 h
E57 [1] = patient-derived glioblastoma stem cells of mesenchymal subtype; assay: surviving fraction (nuclei count normalised to DMSO); higher = more cells surviving (less toxic)
E31 [2] = patient-derived glioblastoma stem cells of proneural subtype; assay: as above
E21 [3] = patient-derived glioblastoma stem cells of mesenchymal subtype; assay: as above
FT3469 [4] = normal neural stem cell line; assay: as above
E34 [5] = patient-derived glioblastoma stem cells of proneural subtype; assay: as above
E28 [6] = patient-derived glioblastoma stem cells of classical subtype; assay: as above
E13 [7] = patient-derived glioblastoma stem cells of classical subtype; assay: as above
E57 [8] = assay: phenotypic distance (Euclidean, principal components) from DMSO controls (arbitrary units); higher = stronger morphological change
E31 [9] = assay: as above
E21 [10] = assay: as above
FT3469 [11] = assay: as above
E34 [12] = assay: as above
E28 [13] = assay: as above
E13 [14] = assay: as above
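For phenotypic distance (Euclidean, principal components) from DMSO controls in this document: cell Painting imaging in 384-well plates, CellProfiler features reduced to at least 20 principal components, Euclidean distance versus same-plate DMSO vehicle wells (0.1% v/v), median over six images per well.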
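For surviving fraction (nuclei count normalised to DMSO) in this document: nuclei counted by high-content imaging of Hoechst-stained cells in laminin-coated 384-well plates, relative to 0.1% DMSO vehicle wells, with staurosporine as cell-death control.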

COc1c(N2CCNC(C)C2)c(F)cc2c(=O)c(C(=O)O)cn(C3CC3)c12 (stereo not drawn) [Gatifloxacin]
Conditions | phenotypic distance | surviving fraction
E13 [7], 4.1 nM | – | 0.802
E13 [7], 12.3 nM | – | 0.892
E13 [7], 37 nM | – | 0.946
E13 [7], 111.1 nM | – | 0.909
E13 [7], 333.3 nM | – | 1.06
E13 [7], 1000 nM | – | 0.806
E13 [7], 3000 nM | – | 0.89
E13 [14], 4.1 nM | 0.675 | –
E13 [14], 12.3 nM | 0.638 | –
E13 [14], 37 nM | 0.734 | –
E13 [14], 111.1 nM | 0.5 | –
E13 [14], 333.3 nM | 0.838 | –
E13 [14], 1000 nM | 0.825 | –
E13 [14], 3000 nM | 0.702 | –
E21 [3], 4.1 nM | – | 0.949
E21 [3], 12.3 nM | – | 0.874
E21 [3], 37 nM | – | 0.875
E21 [3], 111.1 nM | – | 0.802
E21 [3], 333.3 nM | – | 0.988
E21 [3], 1000 nM | – | 0.814
E21 [3], 3000 nM | – | 0.929
E21 [10], 4.1 nM | 1 | –
E21 [10], 12.3 nM | 0.609 | –
E21 [10], 37 nM | 0.741 | –
E21 [10], 111.1 nM | 0.873 | –
E21 [10], 333.3 nM | 0.581 | –
E21 [10], 1000 nM | 1 | –
E21 [10], 3000 nM | 0.84 | –
E28 [6], 4.1 nM | – | 0.883
E28 [6], 12.3 nM | – | 0.852
E28 [6], 37 nM | – | 0.951
E28 [6], 111.1 nM | – | 0.859
E28 [6], 333.3 nM | – | 0.769
E28 [6], 1000 nM | – | 0.982
E28 [6], 3000 nM | – | 1.01
E28 [13], 4.1 nM | 0.347 | –
E28 [13], 12.3 nM | 0.661 | –
E28 [13], 37 nM | 0.66 | –
E28 [13], 111.1 nM | 0.527 | –
E28 [13], 333.3 nM | 0.675 | –
E28 [13], 1000 nM | 0.514 | –
E28 [13], 3000 nM | 0.819 | –
E31 [2], 4.1 nM | – | 1.03
E31 [2], 12.3 nM | – | 0.99
E31 [2], 37 nM | – | 0.946
E31 [2], 111.1 nM | – | 0.898
E31 [2], 333.3 nM | – | 1.01
E31 [2], 1000 nM | – | 1.04
E31 [2], 3000 nM | – | 1.24
E31 [9], 4.1 nM | 0.659 | –
E31 [9], 12.3 nM | 2.43 | –
E31 [9], 37 nM | 0.809 | –
E31 [9], 111.1 nM | 0.741 | –
E31 [9], 333.3 nM | 0.52 | –
E31 [9], 1000 nM | 0.474 | –
E31 [9], 3000 nM | 0.691 | –
E34 [5], 4.1 nM | – | 0.932
E34 [5], 12.3 nM | – | 0.945
E34 [5], 37 nM | – | 1.06
E34 [5], 111.1 nM | – | 0.967
E34 [5], 333.3 nM | – | 1.09
E34 [5], 1000 nM | – | 0.908
E34 [5], 3000 nM | – | 0.955
E34 [12], 4.1 nM | 0.671 | –
E34 [12], 12.3 nM | 0.619 | –
E34 [12], 37 nM | 0.973 | –
E34 [12], 111.1 nM | 0.498 | –
E34 [12], 333.3 nM | 0.426 | –
E34 [12], 1000 nM | 0.62 | –
E34 [12], 3000 nM | 0.52 | –
E57 [1], 4.1 nM | – | 0.966
E57 [1], 12.3 nM | – | 1.04
E57 [1], 37 nM | – | 0.993
E57 [1], 111.1 nM | – | 1.05
E57 [1], 333.3 nM | – | 1.06
E57 [1], 1000 nM | – | 1.05
E57 [1], 3000 nM | – | 1.05
E57 [8], 4.1 nM | 0.413 | –
E57 [8], 12.3 nM | 0.404 | –
E57 [8], 37 nM | 0.488 | –
E57 [8], 111.1 nM | 0.447 | –
E57 [8], 333.3 nM | 0.584 | –
E57 [8], 1000 nM | 0.465 | –
E57 [8], 3000 nM | 0.475 | –
FT3469 [4], 4.1 nM | – | 0.737
FT3469 [4], 12.3 nM | – | 0.928
FT3469 [4], 37 nM | – | 0.867
FT3469 [4], 111.1 nM | – | 0.774
FT3469 [4], 333.3 nM | – | 0.957
FT3469 [4], 1000 nM | – | 0.995
FT3469 [4], 3000 nM | – | 0.79
FT3469 [11], 4.1 nM | 1.03 | –
FT3469 [11], 12.3 nM | 0.624 | –
FT3469 [11], 37 nM | 0.658 | –
FT3469 [11], 111.1 nM | 0.568 | –
FT3469 [11], 333.3 nM | 0.713 | –
FT3469 [11], 1000 nM | 0.561 | –
FT3469 [11], 3000 nM | 1.24 | –
